Values of other authors, collected in US20240115591A1, “THERAPEUTIC METHODS AND COMPOSITIONS FOR TREATING BILIARY TRACT CANCER USING DEVIMISTAT” (Cornerstone Pharmaceuticals, Inc., priority 2020, published 2024).

Experiments:
[1] = system: locally advanced or metastatic BTC; conditions: for OS (overall survival): 410 patients with locally advanced or metastatic BTC, phase III ABC-02
[2] = ABC-02, patients with advanced BTC

Compound	OS (overall survival) [1] [months]	grade 3 and 4 adverse event: abnormal liver function [2] [%]	grade 3 and 4 adverse event: anemia [2] [%]	grade 3 and 4 adverse event: deep vein thrombosis [2] [%]	grade 3 and 4 adverse event: fatigue [2] [%]	grade 3 and 4 adverse event: impaired renal function [2] [%]	grade 3 and 4 adverse event: nausea [2] [%]	grade 3 and 4 adverse event: neutropenia [2] [%]	grade 3 and 4 adverse event: thrombocytopenia [2] [%]	grade 3 and 4 adverse event: thromboembolic event [2] [%]	grade 3 and 4 adverse event: vomiting [2] [%]	grade 3 and 4 adverse event: infection (in vivo) [%]	objective response rate ([1]; ABC-02, combination arm) [%]	hazard ratio (HR) for OS ([1]; gemcitabine cisplatin arm versus gemcitabine alone arm, 95% CI 0.52 to 0.80, p<0.001)	historical ORR (CR+PR) ([1]; historical estimate from Valle et al. 2010, used as null hypothesis for the planned phase 2) [%]
Nc1ccn([C@@H]2O[C@H](CO)[C@@H](O)C2(F)F)c(=O)n1 [gemcitabine, 2′-deoxy-2′,2′-difluorocytidine (β-isomer)]	8.1														
gemcitabine cisplatin	11.7	16.7	7.6	2	18.7	1.5	4	25.3	15.7	3.5	5.1	18.2	26.1	0.64	25
